Calls of active or inactive are those of the source. The rule behind the calls is not given here.
Columns and labels:
[1] = Antioxidant activity assessed as Fe2+ quenching activity; assay type: functional
[2] = tested on: Radical scavenging activity; experiment: Antioxidant activity assessed as inhibition of DPPH free radical; assay type: functional
[3] = Antioxidant activity assessed as Cu2+ quenching activity; assay type: functional
[4] = Antioxidant activity assessed as inhibition of ABTS free radical; assay type: functional
[5] = Binding affinity to Fe2+
[6] = Binding affinity to Cu2+; assay type: physicochemical
[7] = Antioxidant activity assessed as Fe2+ chelating activity by fluorescence spectroscopy; assay type: functional
[8] = Antioxidant activity assessed as Cu2+ chelating activity by fluorescence spectroscopy; assay type: functional

| Compound | IC50 [2] [µM] | IC50 [4] [µM] | Ka [5] | Ka [6] | KSV [1] | KSV [3] | Activity [7] | Activity [8] |
| --- | --- | --- | --- | --- | --- | --- | --- | --- |
| Oc1ccc(/N=C/c2ccccc2O)cc1 | 107 | 4.68 | 9.67 ×10³ /M | 4.43 ×10³ /M | 1.43 ×10⁵ /M | 7.21 ×10⁴ /M | – | – |
| Oc1ccc(/N=C/c2ccccc2)cc1 [4-(BENZYLIDENEAMINO)PHENOL] | 71.5 | 6.03 | 1.62 ×10⁴ /M | 3.17 ×10³ /M | 4.09 ×10³ /M | 3.49 ×10³ /M | – | – |
| Oc1cccc(/N=C/c2ccccc2)c1 [3-(BENZYLIDENEAMINO)PHENOL] | 466 | 33.5 | 1.47 ×10⁴ /M | 1.39 ×10⁴ /M | 7.03 ×10³ /M | 5.2 ×10³ /M | – | – |
| Oc1ccc(/N=C/C=C/c2ccccc2)cc1 | 399 | 4.93 | 2.47 ×10⁴ /M | 1.45 ×10⁴ /M | 6.6 ×10³ /M | 2.49 ×10³ /M | – | – |
| Oc1cccc(/N=C/C=C/c2ccccc2)c1 | 143 | 3.99 | 6.25 ×10³ /M | 3.51 ×10³ /M | 8.91 ×10³ /M | 2.8 ×10³ /M | – | – |
| Oc1ccccc1/C=N/c1ccccc1O | 25 | 5.16 | 6.48 ×10³ /M | 1.26 ×10⁴ /M | 6.7 ×10⁴ /M | 6.07 ×10⁴ /M | Active | Active |

Continued, in another order:

| IC50 [2] [µM] | IC50 [4] [µM] | Ka [5] | Ka [6] | Compound | KSV [1] | KSV [3] | Activity [7] | Activity [8] |
| --- | --- | --- | --- | --- | --- | --- | --- | --- |
| 20.8 | 4.16 | 5.03 ×10³ /M | 3.05 ×10³ /M | CN(C)c1ccc(/C=N/c2ccc(O)cc2)cc1 | 7.4 ×10³ /M | 2.69 ×10⁴ /M | – | – |
| 10.8 | 7.07 | 7.3 ×10⁴ /M | 2.36 ×10⁴ /M | CN(C)c1ccc(/C=N/c2ccccc2O)cc1 | 5.19 ×10³ /M | 1.53 ×10⁴ /M | – | – |
| 50.2 | 6.14 | 1.81 ×10³ /M | 0.85 ×10³ /M | Oc1ccc(/N=C/c2ccco2)cc1 | 0.9 ×10³ /M | 1.17 ×10³ /M | – | – |
| 407 | 3.68 | 3.21 ×10³ /M | 3.02 ×10³ /M | Oc1cccc(/N=C/c2ccccc2O)c1 | 2.61 ×10⁴ /M | 1.1 ×10⁵ /M | – | – |
| 65.8 | 37 | – | – | Cc1cc(C(C)(C)C)c(O)c(C(C)(C)C)c1 [BUTYLATED HYDROXYTOLUENE] | – | – | – | – |

From ChEMBL document CHEMBL3046410, “Antioxidant activities and transition metal ion chelating studies of some hydroxyl Schiff base derivatives” (Med Chem Res, 2012)
